Data reported in patent publication US20240327462A1, “SHORT PEPTIDES, PHARMACEUTICAL COMPOSITIONS COMPRISING THE SAME, AND USES THEREOF IN TREATING NEUROLOGICAL DISEASES” (FU JEN CATHOLIC UNIVERSITY, priority 2023, published 2024).

Key:
NSC34 cells = assay: Neurite outgrowth of NSC34 cells cultured in Sol8-NogoA conditioned medium; assay type: cell-based, mouse; details: Sol8-NogoA CM with peptide 66 ng/ml, 48 hours; PBS in Sol8-NogoA CM 53.6 μm, PBS in Sol8 CM 99.4 μm
Experimental: . After 24-48 hours, the supernatant containing viral particles was collected and centrifuged at a speed of 1,250 rpm, followed by adding to Sol8 cells (ATCC, CRL-2174) pretreated with 8 μg/ml POLYBRENE®. 24 hour later, the fresh DMEM medium containing 10% fetal bovine serum (FBS), 100 units/ml penicillin, 1% streptomycin and 4 ug/ml puromycin was added to the Sol8 cells so as to obtain NogoA-overexpressed Sol8 cells.
The wild-type Sol8 cells and NogoA-overexpressed Sol8 cells (Sol8-NogoA cells) were respectively cultured and differentiated in DMEM medium containing 10% FBS, 100 units/ml penicillin and 1% streptomycin. Two days later, 1 μg/μl of doxycycline was added to the medium so as to induce the expression of target genes. The culture medium was collected and the fresh medium containing doxycycline was added to the Sol8-NogoA cells every 24 hours. The collected culture medium was then centrifuged at a speed of 3,000 rpm for 5 minutes at room temperature, and the supernatant was harvested therefrom served as CM for the following assays.
(§1) NSC34 cells (mouse Neuroblastoma x Spinal Cord-34 cell line) (RRID:CVCL_D356) were cultured in DMEM medium containing 10% FBS, 100 units/ml penicillin and 1% streptomycin. To investigate the effect of the present peptides (including FD1, FD2, FD3 and FD4) on neurons, NSC34 cells were cultivated in differentiation medium (DMEM medium containing 2.5% FBS, 100 units/ml penicillin and 1% streptomycin) for 24 hours, and then continued cultivating in CM obtained from culturing Sol8-NogoA cells (Sol8-NogoA CM) with or without addition of the present peptide (i.e., FD1, FD2, FD3 or FD4) in an amount of 66 ng/ml. The CM with or without containing the present peptide was refreshed daily. Cells were fixed with paraformaldehyde (PFA) for 48 hours, followed by measuring the length of neurite outgrowth using software based the neurites shown on microscopic image. Each data was averaged from three independent experiments and the length presented in each time was averaged from more than 100 counting cells. The effect of the present peptide on improving neurite outgrowth was determined by comparing the neurite length of NSC34 cells treated with the present peptide in Sol8-NogoA CM with that of NSC34 cells treated with phosphate buffered saline (PBS; serving as a control group) in Sol8-NogoA CM.

[1] = tested on: phosphorylated cofilin (p-cofilin); assay: Western blot of phosphorylated cofilin (p-cofilin) in treated NSC34 cells; assay type: cell-based, mouse; details: NSC34 cells in NogoA-overexpressed Sol8 CM with peptide, compared to PBS control normalized as 1
Experimental: as §1
The total proteins extracted from treated NSC34 cells were analyzed by sodium dodecyl-sulfate polyacrylamide gel electrophoresis (SDS-PAGE) on a 12% polyacrylamide gel. After electrophoresis, western blotting was performed. The protein levels of phosphorylated cofilin (p-cofilin) and alpha-tubulin contained in NSC34 cells cultured in medium with addition of either PBS (served as control) or the present peptide (i.e., FD1, FD2, FD3 or FD4) were determined using antibodies specifically against p-cofilin and alpha-tubulin, respectively. The intensity shown on the blot was quantified by software. Each data was averaged from three independent experiments. The relative intensity among groups was based on the comparison with that of control group set as 1.

[2] = tested on: Tg(mnxl:GFP) zebrafish embryos; assay: Axonal branching of motor neurons in Tg(mnxl:GFP) zebrafish embryos; assay type: in vivo; details: microinjected into brain chamber at 20 hpf, examined at 30 hpf; compared to untreated and 16-a.a.-injected control groups
Experimental: The branched primary motor neurons (PMN) derived from caudal primary (CaP) motoneurons located at somites from 11th to 20th of Tg(mnxl:GFP) zebrafish embryos at 30 hours post fertilization (hpf) was examined. The untreated embryos served as control group, the embryos injected with an arbitrary non-functional 16 a.a. served as mock control group, while experimental groups were embryos injected with FD1, FD2, FD3 or FD4. […] Each data was averaged from three independent experiments.
The PBS and present peptides (i.e., FD1, FD2, FD3 and FD4) were respectively microinjected into the brain chamber of Tg (mnxl:GFP) embryos at 20 hpf. After 10 hours, the control embryos, mock control embryos and experimental embryos were monitored by anatomic microscope equipped with fluorescence system and digital camera.

ALS SOD1G93A mice [3] = assay: Denervation of neuromuscular junction (NMJ) in ALS SOD1G93A mice; assay type: in vivo; details: 250 ug (about 10 mg/Kg) i.v. weekly from day 60; gastrocnemius muscle of 75-day-old mice; vs PBS-injected mouse
Experimental: (§2) Transgenic mice of the congenic strain ALS SOD1^G93A carrying human SOD1 with the pathogenic G93A mutation (a mouse model of ALS that developed stereotyped phenotypes resembling the symptoms in ALS patients) were purchased from The Jackson Laboratory (JAX). The present peptide (i.e., FD1, FD2, FD3 or FD4) was initiated to inject intravenously in an amount of 250 ug (about 10 mg/Kg) into 60-day-old ALS SOD1^G93A mice. Injection was performed weekly. Injection of PBS served as a control group. The treated mice were monitored daily and analyzed via video tracking software.
To study the denervation of NMJ, the gastrocnemius muscles were extracted from 75-day-old ALS SOD1^G93A mice received with either PBS (control) or the present peptide (FD1, FD2, FD3 or FD4) and analyzed by immunostaining. In brief, the gastrocnemius muscles fixed with paraformaldehyde (PFA) were mounted on glass slides and treated with 2% TRITON™ for one hour. After blocking with PBS containing 5% bovine serum albumin (BSA) for 2 hours, the antibody against either synaptic vesicle protein (synapsin) or alpha-Bungarotoxin (α-BTX) was added to the slides, followed by incubating at 4° C. for 16 hours. The slides were washed with PBS containing 2% TRITON™ for three times, and then Cy2-conjugated anti-rabbit antibody and ALEXA FUOR™ 647-conjugated anti-mouse antibody were respectively added to the slides, followed by incubating at 4° C. for 16 hours. The slides were washed with PBS containing 2% TRITON™ for three times. The axon terminal of motoneurons via synapsin labeled by green fluorescent signal, while detected the acetylcholine receptor on motor endplates via α-BTX labeled by red fluorescent signal. […]. The percentage of yellow signal (green signal overlapped with red signal) among total red signal shown on the 600× magnified image area (400×400 pixels) of muscle sample from PBS- and peptide-injected SOD1-G93A ALS mouse was calculated using software. Each experiment was calculated from 13-15 images.

ALS SOD1G93A mice [4] = assay: Moving capability of ALS model mice (SOD1 G93A); assay type: in vivo, mouse; details: 250 ug (about 10 mg/Kg) i.v. weekly from day 60; measured at 124 days after birth; vs PBS-injected control ALS mice
Experimental: as §2
The moving capability of ALS model mice (SOD1 G93A) injected with PBS or the present peptide (i.e., FD1, FD2, FD3 or FD4) was determined via measuring the moving trajectory of each treated mouse at 124 days after birth.

ALS SOD1G93A mice [5] = assay: Survival of ALS SOD1G93A mice; assay type: in vivo, mouse; details: 250 ug (about 10 mg/Kg) i.v. weekly from day 60; for cumulated survival rate compared to PBS-injected control mice: 5 mice per group vs 7 PBS controls; for average survival days: 5 mice per group, PBS control 130.0
Experimental: as §2
The initial total number of ALS mice in each group (7 and 5 samples for control and FD-treated groups, respectively) was set as a 100% survival rate. During experimental period, once the ALS mouse was dead, the number and its survival days were recorded, and the cumulative survival rate was counted. When all ALS mice within the experimental group were dead, the cumulative survival rate was considered as 0%. In case that either the weight loss of a mouse was greater than 20% of original or a mouse that was not capable to eat and drink normally, euthanasia was performed and considered it as a non-survival sample. The survival days for each group were averaged from seven samples for PBS-injected control group and five samples for FD-injected experimental groups.

WEAFARGTKALMDEVV [FD1, short peptide derived from human PGK1, 16 a.a]
neurite length of NSC34 cells (NSC34 cells): 89.2 μm | p-cofilin protein level [1]: significantly reduced | percentage of zebrafish embryos exhibiting branched motor neurons [2]: significantly increased | percentage of co-localized synapsin-1 and α-BTX (NMJ integrity) (ALS SOD1G93A mice [3]): significantly higher | moving distance (ALS SOD1G93A mice [4]): significantly improved | cumulated survival rate compared to PBS-injected control mice (ALS SOD1G93A mice [5]): longer survival time | average survival days (ALS SOD1G93A mice [5]): 140.0 days

WEAFARGTRALMDEVV [FD3, mutant of FD1, lysine at position 9 substituted with arginine]
neurite length of NSC34 cells (NSC34 cells): 88.2 μm | p-cofilin protein level [1]: significantly reduced | percentage of zebrafish embryos exhibiting branched motor neurons [2]: significantly increased | percentage of co-localized synapsin-1 and α-BTX (NMJ integrity) (ALS SOD1G93A mice [3]): significantly higher | moving distance (ALS SOD1G93A mice [4]): significantly improved | cumulated survival rate compared to PBS-injected control mice (ALS SOD1G93A mice [5]): not shown difference | average survival days (ALS SOD1G93A mice [5]): 130.8 days

WEAFARGTKALMRQVV [FD4, mutant of FD1, D13 substituted with R and E14 with Q]
neurite length of NSC34 cells (NSC34 cells): 95.8 μm | p-cofilin protein level [1]: significantly reduced | percentage of zebrafish embryos exhibiting branched motor neurons [2]: significantly increased | percentage of co-localized synapsin-1 and α-BTX (NMJ integrity) (ALS SOD1G93A mice [3]): significantly higher | moving distance (ALS SOD1G93A mice [4]): significantly improved | cumulated survival rate compared to PBS-injected control mice (ALS SOD1G93A mice [5]): longer survival time | average survival days (ALS SOD1G93A mice [5]): 139.0 days

WEAFARGTKPLMDEVV [FD2, mutant of FD1, alanine at position 10 substituted with proline]
neurite length of NSC34 cells (NSC34 cells): 66.6 μm | p-cofilin protein level [1]: significantly reduced | percentage of zebrafish embryos exhibiting branched motor neurons [2]: significantly increased | percentage of co-localized synapsin-1 and α-BTX (NMJ integrity) (ALS SOD1G93A mice [3]): significantly higher | moving distance (ALS SOD1G93A mice [4]): significantly improved | cumulated survival rate compared to PBS-injected control mice (ALS SOD1G93A mice [5]): longer survival time | average survival days (ALS SOD1G93A mice [5]): 147.0 days
